Each structure is given as a SMILES string.

The results in this text go back to PMC8569681, “New Pyrimidine and Pyridine Derivatives as Multitarget Cholinesterase Inhibitors: Design, Synthesis, and In Vitro and In Cellulo Evaluation” (ACS Chemical Neuroscience, 2021).

The experiment is described as follows: Antioxidant activity, DPPH spectrophotometric method. The following applies: DPPH, absorbance at 515 nm. As to the method: The antioxidant activity assays were carried out according to the 2,2-diphenyl-1-picrylhydrazyl (DPPH) spectrophotometric method.[34] Initially, to assess whether the compounds had antioxidant activity and to define the time required by each antioxidant to reach the steady state, the reduction in absorbance over time at 515 nm of a solution of DPPH mixed with the tested compound was recorded until reaching the plateau. […] The value of EC50 can be extrapolated by plotting the percentage of residual DPPH at the steady state as a function of the molar ratio of the antioxidant to initial DPPH.
2,2-Diphenyl-1-picrylhydrazyl (DPPH), MeOH, and ascorbic acid, used as the reference standard, were purchased from Sigma-Aldrich. Micropipettes Labmate (BRAND Dig. 10–100 μL; Dig. 100–1000 μL) and Transferpette (HIGH TECH LAB LM200: 20–200 μL; LM5000: 1000–5000 μL) were used to collect the samples. The assays were carried out by a double beam UV–vis Lambda 40 Perkin Elmer spectrophotometer using optical polystyrene cuvettes (10 × 10 × 45 mm, 340–800 nm optical transparency); each measure was repeated at least in triplicate. For data processing, UV-WIN Lab version 2.0 (Perkin Elmer Corporation) was used. The antioxidant activity of the tested compounds was evaluated by the DPPH method[34] based on the ability of antioxidant compounds to react with the stable radical DPPH, which has a maximum absorption at about 515 nm. Thus, by measuring the decrease in absorbance over time of DPPH solutions to which increasing amounts of the tested compound are added, the antioxidant activity of the compound can be determined.
[…]. To 2.90 mL of MeOH, 60 μL of a DPPH solution in MeOH (∼1.2 mM) and 40 μL of an antioxidant solution in MeOH (4.5 mM) were added to have in the cuvette concentrations of DPPH equal to about 25 μM and of antioxidant equal to 60 μM. The exact DPPH concentration was calculated through the Lambert–Beer relation, known the extinction coefficient of DPPH at 515 nm, equal to 1.25 × 10^4.[34] The absorbance was recorded until the plateau was reached.
. To obtain the initial DPPH concentration, 2.94 mL of MeOH and 60 μL of the DPPH solution in MeOH (∼1.2 mM) were placed in a polystyrene cuvette and the absorbance was recorded at 515 nm. The exact initial DPPH concentration was calculated through the Lambert–Beer relation. For subsequent measurements, the cuvettes were set up by introducing the opportune volume of MeOH to reach a total volume of 3 mL, 60 μL of the DPPH solution in MeOH (∼1.2 mM, to have a final concentration of ∼25 μM), and the appropriate volumes of the antioxidant stock solution in MeOH to have final concentrations between 1.5 and 12 μM for 20 and between 5 and 60 μM for 18 and 30; the absorbance was recorded at 515 nm at the plateau and then after 1 min for compound 20 and after 90 min for compounds 18 and 30. Each measure was repeated four times. With absorbance data, the percentages of residual DPPH at steady state were obtained using the following equation: [drawing 3] where Ac is the average of absorbance in the presence of antioxidant at plateau and A0 is the average of the initial absorbance of DPPH.
The same procedure was performed using ascorbic acid as the antioxidant at cuvette concentrations between 1.5 and 18 μM, recording the absorbance at 515 nm after 2 min from the preparation of the cuvettes.
In general terms: DPPH is a stable violet radical that fades when it is reduced.

On to `O=C1O[C@H]([C@@H](O)CO)C(O)=C1O` [ascorbic acid, reference compound], for which the “reaction time (time for reaching the plateau)” value was determined as 2 min.
`CC(C)(C)OC(=O)NCCCCCCNc1ncccn1` [Compound 2, tert-Butyl {6-[(Pyrimidin-2-yl)amino]hexyl}carbamate]: the “reaction time (time for reaching the plateau)” value amounted to 1 min.
